Experimental findings from publication PMC8034185, “The rumen eukaryotome is a source of novel antimicrobial peptides with therapeutic potential” (BMC Microbiology, 2021) are described below.

Assay in all cases: microbe, parasite or virus in culture
One experiment concerns Sal. Tyhimurium (SL1344). Type of experiment: cell-based, Salmonella enterica serovar Typhimurium. The settings on record: modified broth microdilution, cation-adjusted Mueller Hinton broth, inoculum 5 × 10^5 CFU/mL, 18 h, quadruplicate, highest concentration tested 512 μg/mL.
Experiment [1] relates to A. baumannii S15785 OXA-23/0XA-50. The class given is cell-based, Acinetobacter baumannii. To be noted: modified broth microdilution, cation-adjusted Mueller Hinton broth, inoculum 5 × 10^5 CFU/mL, 18 h, quadruplicate, highest concentration tested 512 μg/mL. A general note: Dilution methods test growth across graded concentrations, often in twofold steps.
Procedure: (§1) MICs against a range of clinically important Gram-positive and Gram-negative bacteria strains including methicillin-sensitive Staphylococcus aureus (MSSA) RN4220 epidemic methicillin-resistant S. aureus-15 (EMRSA-15), methicillin-resistant S. aureus USA300 (MRSA USA300), Bacillus cereus, Enterococcus faecalis JH2–2, Escherichia coli K12, Salmonella enterica serovar Typhimurium SL1344, P. aeruginosa PAO1, and hospital isolates of Acinetobacter baummannii were determined in quadruplicate by a modified microdilution broth method [64] with a final bacterial inoculum concentration of 5 × 10^5 CFU/mL utilised as the test organisms. Cation-adjusted Mueller Hinton (MH) broth was innoclated overnight with a single colony of the tested microorganisms, subsequently grown for 16–24 h with shaking at 225 rpm, and further diluted in the same broth to a final concentration of 5 × 10^5 CFU/mL. The bacterial suspension was added to sterile U-bottomed 96-well plates, and the peptides and control antibiotics to be tested were dissolved in sterile distilled water and serially diluted in the wells. The MICs were recorded as the lowest peptide concentration that inhibited growth after incubation for 18 h [65].
The subject of another experiment is A. baumannii DSMZ 30007. The class given is cell-based, Acinetobacter baumannii. The settings on record: modified broth microdilution, cation-adjusted Mueller Hinton broth, inoculum 5 × 10^5 CFU/mL, 18 h, quadruplicate, highest concentration tested 512 μg/mL.
For a further experiment, the system named is P. aeruginosa PAO1. The class given is cell-based, Pseudomonas aeruginosa. The settings on record: modified broth microdilution, cation-adjusted Mueller Hinton broth, inoculum 5 × 10^5 CFU/mL, 18 h, quadruplicate, highest concentration tested 512 μg/mL.
Another experiment concerns A. baumannii S27379 Sen. The class given is cell-based, Acinetobacter baumannii. To be noted: sensitive hospital isolate, modified broth microdilution, cation-adjusted Mueller Hinton broth, inoculum 5 × 10^5 CFU/mL, 18 h, quadruplicate, highest concentration tested 512 μg/mL.
The test system of a further experiment is E. coli K12. The class given is cell-based, Escherichia coli. The settings on record: modified broth microdilution, cation-adjusted Mueller Hinton broth, inoculum 5 × 10^5 CFU/mL, 18 h, quadruplicate, highest concentration tested 512 μg/mL.
For the next experiment, the system named is P. aeruginosa H174. Type of experiment: cell-based, Pseudomonas aeruginosa. To be noted: modified broth microdilution, cation-adjusted Mueller Hinton broth, inoculum 5 × 10^5 CFU/mL, 18 h, quadruplicate, highest concentration tested 512 μg/mL.
The subject of a further experiment is A. baumannii IMI/MER-R. Type of experiment: cell-based, Acinetobacter baumannii. The settings on record: imipenem/meropenem resistant, modified broth microdilution, cation-adjusted Mueller Hinton broth, inoculum 5 × 10^5 CFU/mL, 18 h, quadruplicate, highest concentration tested 512 μg/mL.

Converted amounts (≈) assume the structure as drawn. Bridge positions count the residues as written; N and C are the ends. Square brackets hold non-standard residues; d marks the D form. Peptide text beside a SMILES is read from it. * marks the point of attachment. X1 = CC[C@H](C)CCCCC(=O)*; Dab = NCC[C@H](N)C(=O)O

Procedure for A. baumannii DSMZ 30007: as §1
Procedure for A. baumannii IMI/MER-R: as §1
Procedure for A. baumannii S27379 Sen: as §1
Procedure for E. coli K12: as §1
Procedure for P. aeruginosa H174: as §1
Procedure for P. aeruginosa PAO1: as §1
Procedure for Sal. Tyhimurium (SL1344): as §1

`C[C@H]1COc2c(N3CCN(C)CC3)c(F)cc3c(=O)c(C(=O)O)cn1c23` [Levofloxacin]: the MIC in the experiment with Sal. Tyhimurium (SL1344) (Salmonella enterica, read-out: Minimum Inhibitory Concentration, Sal. Tyhimurium) was 0.12 µg/mL (≈ 0.332 µM); in experiment [1] (Acinetobacter baumannii, read-out: Minimum Inhibitory Concentration, A. baumannii S15785 OXA-23/0XA-50) it was greater than 512 µg/mL; in the experiment with A. baumannii DSMZ 30007 (Acinetobacter baumannii, DSMZ30007, read-out: Minimum Inhibitory Concentration, A. baumannii DSMZ 30007), 0.25 µg/mL (≈ 0.692 µM); in the experiment on P. aeruginosa PAO1 (Pseudomonas aeruginosa, PAO1, read-out: Minimum Inhibitory Concentration, P. aeruginosa PAO1) it was 0.06 µg/mL (≈ 0.166 µM); with A. baumannii S27379 Sen (Acinetobacter baumannii, S27379SEN, read-out: Minimum Inhibitory Concentration, A. baumannii S27379 Sen), 0.12 µg/mL (≈ 0.332 µM); with E. coli K12 (Escherichia coli, K12, read-out: Minimum Inhibitory Concentration, E. coli K12), 0.03 µg/mL (≈ 0.083 µM). In addition, the MIC in the experiment with P. aeruginosa H174 (Pseudomonas aeruginosa, H174, read-out: Minimum Inhibitory Concentration, P. aeruginosa H174) amounted to 0.5 µg/mL (≈ 1.38 µM); in the experiment on A. baumannii IMI/MER-R (Acinetobacter baumannii, read-out: Minimum Inhibitory Concentration, A. baumannii IMI/MER-R) it was 256 µg/mL (≈ 708 µM).

On to `CC[C@H](C)CCCCC(=O)N[C@@H](CCN)C(=O)N[C@H](C(=O)N[C@@H](CCN)C(=O)N[C@H]1CCNC(=O)[C@H]([C@@H](C)O)NC(=O)[C@H](CCN)NC(=O)[C@H](CCN)NC(=O)[C@H](CC(C)C)NC(=O)[C@@H](Cc2ccccc2)NC(=O)[C@H](CCN)NC1=O)[C@@H](C)O` [Polymyxin B] (X1-[Dab]T[Dab][Dab][Dab][dF]L[Dab][Dab]T; lactam 4-C (inferred); N-terminus assumed), for which, in the experiment with Sal. Tyhimurium (SL1344), the “Minimum Inhibitory Concentration, Sal. Tyhimurium” value came to 1 µg/mL. In addition, the “Minimum Inhibitory Concentration, A. baumannii S15785 OXA-23/0XA-50” value in experiment [1] was 0.5 µg/mL. Moreover, the “Minimum Inhibitory Concentration, A. baumannii DSMZ 30007” value in the experiment with A. baumannii DSMZ 30007 amounted to 1 µg/mL. Also, in the experiment with P. aeruginosa PAO1, the “Minimum Inhibitory Concentration, P. aeruginosa PAO1” value stood at 2 µg/mL. Also, the “Minimum Inhibitory Concentration, A. baumannii S27379 Sen” value in the experiment with A. baumannii S27379 Sen stood at 1 µg/mL. Besides, the “Minimum Inhibitory Concentration, E. coli K12” value with E. coli K12 is 0.5 µg/mL. In the experiment on P. aeruginosa H174, the “Minimum Inhibitory Concentration, P. aeruginosa H174” value is 1 µg/mL. Also, the “Minimum Inhibitory Concentration, A. baumannii IMI/MER-R” value in the experiment with A. baumannii IMI/MER-R turned out to be 1 µg/mL.
